Legend:
[1] = target: Carbonic anhydrase 2 (Homo sapiens, UniProt P00918)
[2] = target: T1, Carbonic anhydrase 1 (Homo sapiens, UniProt P00915)
[3] = target: Carbonic anhydrase 4 (Homo sapiens, UniProt P22748)
[4] = target: T2, Carbonic anhydrase 9 (Homo sapiens, UniProt Q16790)
[5] = target: Carbonic anhydrase 12 (Homo sapiens, UniProt O43570)
[6] = test system: Ca9-22; experiment: cells; assay type: functional; details: Homo sapiens, time 48 hrs
Description: Cytotoxicity against human Ca9-22 cells assessed as cell growth inhibition measured after 48 hrs by MTT assay

[7] = target: T1, Carbonic anhydrase 1; remark: listed apart in the source
[8] = target: T2, Carbonic anhydrase 9; remark: listed apart in the source

T1 sequence (P00915 whole entry): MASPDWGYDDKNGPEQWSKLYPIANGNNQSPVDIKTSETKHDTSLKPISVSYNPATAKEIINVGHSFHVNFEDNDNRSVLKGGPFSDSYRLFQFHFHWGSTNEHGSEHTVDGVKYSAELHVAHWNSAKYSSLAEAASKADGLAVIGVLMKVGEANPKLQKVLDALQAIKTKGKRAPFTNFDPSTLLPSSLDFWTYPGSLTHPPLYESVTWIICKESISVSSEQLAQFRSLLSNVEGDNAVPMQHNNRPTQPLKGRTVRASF
Carbonic anhydrase 12, sequence (O43570 whole entry): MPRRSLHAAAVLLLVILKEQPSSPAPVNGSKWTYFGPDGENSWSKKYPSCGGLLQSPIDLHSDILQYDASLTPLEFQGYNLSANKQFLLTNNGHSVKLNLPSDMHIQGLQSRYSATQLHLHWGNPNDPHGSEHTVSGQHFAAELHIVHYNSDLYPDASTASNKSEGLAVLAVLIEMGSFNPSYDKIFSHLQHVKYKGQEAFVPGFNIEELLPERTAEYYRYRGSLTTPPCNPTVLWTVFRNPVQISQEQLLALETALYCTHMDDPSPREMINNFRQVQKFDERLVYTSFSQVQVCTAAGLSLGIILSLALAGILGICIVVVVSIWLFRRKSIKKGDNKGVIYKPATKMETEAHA
Carbonic anhydrase 4, sequence (P22748 whole entry): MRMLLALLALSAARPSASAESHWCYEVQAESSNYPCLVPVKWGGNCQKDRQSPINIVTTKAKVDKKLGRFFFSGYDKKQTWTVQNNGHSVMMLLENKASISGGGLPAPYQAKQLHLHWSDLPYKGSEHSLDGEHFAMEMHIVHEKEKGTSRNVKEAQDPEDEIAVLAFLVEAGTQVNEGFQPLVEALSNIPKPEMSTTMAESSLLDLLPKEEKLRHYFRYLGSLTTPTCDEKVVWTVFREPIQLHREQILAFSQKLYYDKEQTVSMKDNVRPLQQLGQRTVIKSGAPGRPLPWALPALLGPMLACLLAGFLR

Row | SMILES | Ki [4] | Ki [5] | further results
1 | O=S1(=O)CC=Cc2cc(-c3ccc(C(F)(F)F)cc3)ccc2O1 |  |  | Ki [1]: > 100000 nM; Ki [2]: > 100000 nM
2 | NS(=O)(=O)c1cccc(N/C=C/C(=O)c2ccco2)c1 |  |  | Ki [3]: 64.5 nM
3 | COc1ccc(-c2cccc3c2OS(=O)(=O)CC=C3)cc1 |  |  | Ki [1]: > 100000 nM; Ki [2]: > 100000 nM
4 | COc1cc(C2CC(c3ccc(C(F)(F)F)cc3)=NN2c2ccc(S(N)(=O)=O)cc2)cc(OC)c1OC (stereo not given) | > 44 nM | > 9 nM | CC50 [6]: 6300 nM; Ki [7]: > 230 nM
5 | C/C(=N\NC(=O)c1ccc(S(N)(=O)=O)cc1)c1ccc(N2C(=O)c3ccc(C)cc3C2=O)cc1 | 17.3 nM |  | 
6 | COc1ccc(C2CC(c3ccc(F)cc3)=NN2c2ccc(S(N)(=O)=O)cc2)c(OC)c1OC (stereo not given) | > 44 nM | > 9 nM | CC50 [6]: 6300 nM; Ki [7]: > 230 nM
7 | CCN1C(=O)/C(=N\Nc2ccc(S(N)(=O)=O)cc2)c2ccccc21 | 23.6 nM |  | 
8 | C/C(=N\O)c1ccc(N2C(=O)c3c(Br)c(Br)c(Br)c(Br)c3C2=O)cc1 | 169 nM |  | 
9 | CCN1C(=O)/C(=N\NC(=O)CNc2ccc(S(N)(=O)=O)cc2)c2ccccc21 |  | 34.3 nM | 
10 | C/C(=N\O)c1ccc(N2C(=O)C3CC=CCC3C2=O)cc1 (stereo not given) | 169 nM |  | 
11 | C/C(=N\NC(=O)c1ccc(S(N)(=O)=O)cc1)c1ccc(N2C(=O)c3ccc(C(=O)O)cc3C2=O)cc1 | 17.3 nM |  | 
12 | COc1cc(C2CC(c3ccc(Br)cc3)=NN2c2ccc(S(N)(=O)=O)cc2)cc(OC)c1OC (stereo not given) | > 44 nM | > 9 nM | CC50 [6]: 6300 nM; Ki [7]: > 230 nM
13 | C/C(=N\NC(=O)c1ccc(S(N)(=O)=O)cc1)c1ccc(N2C(=O)C3CC=CCC3C2=O)cc1 (stereo not given) | 17.3 nM |  | 
14 | O=S1(=O)CC=Cc2cccc(Br)c2O1 |  |  | Ki [1]: > 100000 nM; Ki [2]: > 100000 nM
15 | C/C(=N\O)c1ccc(N2C(=O)c3c(Cl)c(Cl)c(Cl)c(Cl)c3C2=O)cc1 | 169 nM |  | 
16 | NS(=O)(=O)c1ccc(NCC(=O)N/N=C2\C(=O)N(C(=O)c3ccccc3)c3ccccc32)cc1 | 65.3 nM |  | 
17 | COc1ccc(C2CC(c3ccc(Br)cc3)=NN2c2ccc(S(N)(=O)=O)cc2)c(OC)c1OC (stereo not given) | > 44 nM | > 9 nM | CC50 [6]: 6300 nM; Ki [7]: > 230 nM
18 | O=S1(=O)CC=Cc2ccc(-c3ccc(F)cc3)cc2O1 |  |  | Ki [1]: > 100000 nM; Ki [2]: > 100000 nM

Row | SMILES | Ki [4] | Ki [5] | further results
19 | CCOC(=O)c1ccc(-c2ccc3c(c2)C=CCS(=O)(=O)O3)cc1 |  |  | Ki [1]: > 100000 nM; Ki [2]: > 100000 nM
20 | COc1cc(C2CC(c3ccc(Cl)cc3)=NN2c2ccc(S(N)(=O)=O)cc2)cc(OC)c1OC (stereo not given) | > 44 nM | > 9 nM | CC50 [6]: 6300 nM; Ki [7]: > 230 nM
21 | Cc1ccc(C(=O)/C=C/Nc2ccc(S(N)(=O)=O)cc2)cc1 |  |  | Ki [8]: 0.21 nM
22 | C=CCN1C(=O)/C(=N\c2ccc(S(N)(=O)=O)cc2)c2ccccc21 | 13.9 nM | 34.3 nM | 
23 | O=S1(=O)CC=Cc2cccc(-c3ccc(F)cc3)c2O1 |  |  | Ki [1]: > 100000 nM; Ki [2]: > 100000 nM
24 | COc1cc(OC)c(C2CC(c3ccc(Cl)cc3)=NN2c2ccc(S(N)(=O)=O)cc2)cc1OC (stereo not given) | > 44 nM | > 9 nM | CC50 [6]: 6300 nM; Ki [7]: > 230 nM
25 | COc1cc(OC)c(C2CC(c3cccs3)=NN2c2ccc(S(N)(=O)=O)cc2)cc1OC (stereo not given) | > 44 nM | > 9 nM | CC50 [6]: 6300 nM; Ki [7]: > 230 nM
26 | CN1C(=O)/C(=N\NC(=O)CNc2ccc(S(N)(=O)=O)cc2)c2ccccc21 | 13.9 nM | 34.3 nM | 
27 | O=S1(=O)CC=Cc2cccc(-c3ccccc3)c2O1 |  |  | Ki [1]: > 100000 nM; Ki [2]: > 100000 nM
28 | NS(=O)(=O)c1ccc(CCNC(=O)CSc2nc3ccc(I)cc3c(=O)n2Cc2ccccc2)cc1 |  | 5.2 nM | 
29 | COc1ccc(C2CC(c3ccc(Cl)cc3)=NN2c2ccc(S(N)(=O)=O)cc2)c(OC)c1OC (stereo not given) | > 44 nM | > 9 nM | CC50 [6]: 6300 nM; Ki [7]: > 230 nM
30 | CCOC(=O)c1ccc(-c2cccc3c2OS(=O)(=O)CC=C3)cc1 |  |  | Ki [1]: > 100000 nM; Ki [2]: > 100000 nM
31 | O=S1(=O)CC=Cc2ccc(-c3ccccc3)cc2O1 |  |  | Ki [1]: > 100000 nM; Ki [2]: > 100000 nM
32 | NS(=O)(=O)c1ccc(N/N=C2\C(=O)N(Cc3ccccc3)c3ccccc32)cc1 | 13.9 nM |  | 
33 | O=S1(=O)CC=Cc2ccc(-c3ccc(C(F)(F)F)cc3)cc2O1 |  |  | Ki [1]: > 100000 nM; Ki [2]: > 100000 nM
34 | CC(C)[C@@H](CC(=O)[C@@H](C)CC(=O)OCc1ccccc1)C(=O)NCc1ccc(S(N)(=O)=O)cc1 |  | 7.4 nM | 
35 | C/C(=N\NC(=O)c1ccc(S(N)(=O)=O)cc1)c1ccc(N2C(=O)c3c(Br)c(Br)c(Br)c(Br)c3C2=O)cc1 | 17.3 nM |  | 
36 | COc1ccc(C2CC(c3ccc(C(F)(F)F)cc3)=NN2c2ccc(S(N)(=O)=O)cc2)c(OC)c1OC (stereo not given) | > 44 nM | > 9 nM | CC50 [6]: 6300 nM; Ki [7]: > 230 nM

Continued, in another order:

Row | Ki [4] | Ki [5] | SMILES | further results
37 | 14.8 nM |  | Cc1ccc(-c2cc(C(F)(F)F)nn2-c2ccc(S(N)(=O)=O)cc2)cc1 [CELECOXIB] | 
38 | 13.9 nM | 34.3 nM | CCN1C(=O)/C(=N\c2ccc(S(N)(=O)=O)cc2)c2ccccc21 | 
39 | 13.9 nM |  | CN1C(=O)/C(=N\Nc2ccc(S(N)(=O)=O)cc2)c2ccccc21 | 
40 | 169 nM |  | C/C(=N\O)c1ccc(N2C(=O)c3ccccc3C2=O)cc1 | 

— ChEMBL document CHEMBL5104090, “Recent advances in the medicinal chemistry of carbonic anhydrase inhibitors” (Eur J Med Chem, 2021)
